Assay: 13C NMR peak width at half-height (PWHH) and relative PWHH of sucrose peaks, Example 1
Format: physicochemical
Conditions: for PWHH, three lots mean, Average: average of the twelve 13C peaks
Protocol: In Example 1, ^13C NMR was performed on three (3) samples (e.g 3 lots) of a comparator iron sucrose drug product having an equivalent concentration of 20 mg base/mL, and three (3) samples (e.g 3 lots) of a tested iron sucrose drug product having an equivalent concentration of 20 mg base/mL were analyzed by ^13C NMR in Example 1. The comparator product was Venofer® having an equivalent concentration of 20 mg base/mL. In addition, ^13C NMR was also performed on 3 samples (e.g. 3 lots) of free sucrose sample. Free sucrose is sucrose only with no iron.
The average PWHH of the 3 lots of the comparator iron sucrose drug product is identified as w in Tables 1 and 2. The average PWHH of the 3 lots of the tested iron sucrose drug productis identified as w in Tables 1 and 2. The average PWHH of the 3 lots of sucrose only sample is identified as w0 in Tables 1 and 2.
In addition to PWHH, a RPWHH is another characterization method disclosed herein. […] As provided in Table 1, the RPWHH averaged among the twelve (12) C peaks and the 3 lots for: (i) w1/wo is 8.5 f 1.0, and (ii) w2/wo is 7.9±1.1.

OC[C@H]1O[C@@](CO)(O[C@H]2O[C@H](CO)[C@@H](O)[C@H](O)[C@H]2O)[C@@H](O)[C@@H]1O [Sucrose Only, sucrose]
PWHH, three lots mean (13C Peak No. 1, 106.0 ppm, Fructose, Carbon Atom No. 8): 10.6 ppb
PWHH, three lots mean (13C Peak No. 2, 95.0 ppm, Glucose, Carbon Atom No. 1): 14.7 ppb
PWHH, three lots mean (13C Peak No. 3, 84.0 ppm, Fructose, Carbon Atom No. 11): 13.4 ppb
PWHH, three lots mean (13C Peak No. 4, 79.0 ppm, Fructose, Carbon Atom No. 9): 16.3 ppb
PWHH, three lots mean (13C Peak No. 5, 76.0 ppm, Fructose, Carbon Atom No. 10): 15.8 ppb
PWHH, three lots mean (13C Peak No. 6, 75.4 ppm, Glucose, Carbon Atom No. 3): 14.3 ppb
PWHH, three lots mean (13C Peak No. 7, 75.2 ppm, Glucose, Carbon Atom No. 5): 14.9 ppb
PWHH, three lots mean (13C Peak No. 8, 73.9 ppm, Glucose, Carbon Atom No. 2): 15.7 ppb
PWHH, three lots mean (13C Peak No. 9, 72.0 ppm, Glucose, Carbon Atom No. 4): 13.7 ppb
PWHH, three lots mean (13C Peak No. 10, 65.2 ppm, Fructose, Carbon Atom No. 7): 16.2 ppb
PWHH, three lots mean (13C Peak No. 11, 64.1 ppm, Fructose, Carbon Atom No. 12): 17.6 ppb
PWHH, three lots mean (13C Peak No. 12, 62.9 ppm, Glucose, Carbon Atom No. 6): 17.2 ppb
PWHH, three lots mean, Average: 15.0 ppb
PWHH, three lots mean, Average (listed as w0): 15±2 ppb

From patent US20230119833A1, “NMR METHODS FOR CHARACTERIZING IRON SUCROSE” (Amphastar Pharmaceuticals, Inc., priority 2020, published 2023)
